Like-named read-outs stand apart in the source and are kept apart here. Residues, ends and D or L forms follow the SMILES beside them.
Columns and labels:
HCT-116 cells = assay type: cell-based, human; settings: for Viable, Mean (%): human; for Viable, Mean (%) / Early Apoptosis, Mean (%) / Late apoptosis, Mean (%): 2 h; for Early Apoptosis, Mean (%) / Late apoptosis, Mean (%): HCT-116 cells
Procedure: 2.2.2. Cell Death Analysis by Flow Cytometry
To detect possible apoptotic processes, cells were seeded in 35 mm dishes and cultured in media containing each tested cyclic peptide for 2 hours following procedure A or B.
Procedure B: Peptides were incubated for 2 hours on HCT-116 cells. Superkiller Trail (ALX-201-115C-010) was used as a positive pro-apoptotic control. Cells were analyzed by cytofluorometry using FITC Annexin V apoptosis detection kit with 7-AAD from BIOLEGEND (BLE640922).

[1] = system: MCF-7, HCT-116, BxPC3 and A549 cancer cells; assay: Cell viability and proliferation of tumor cells (cytotoxic assay and direct cell counting); assay type: cell-based, human; settings: for efficiency in inducing cell death on cancer cell lines: MCF-7, HCT-116, BxPC3, A549; for viability in all cell strains: 2 hours, 10 to 50 μM peptide concentration
Procedure: The effects of several cyclic peptides of the invention on the proliferation of tumor cells were evaluated on 5 cell lines (MCF-7, human breast cancer cells; HCT-116, human colon cancer cells; BxPC3, human pancreas cancer cells and A549, human lung cancer cells) by cytotoxic assay and by counting directly the number of cells.
Those cyclic peptides were dissolved in DMSO at the following concentrations: 0, 5, 10, 25, 50 and 100 μM.
Culture media used for these assays are: EMEM=10% SVF for MCF-7 and Wi38; RPMI […] SVF for HCT-116 and BxPC3 and F-12K=10% SVF for A549.
500 cells were seeded in 96-well plates, incubated at 37° C. for 24 hours, and treated by the cyclic peptides at the different concentrations and controls for 2 h.

[2] = peptide concentration 12.5 (μM)

Molecule | Viable, Mean (%) (HCT-116 cells; 12.5 μM) | Viable, Mean (%) (HCT-116 cells; 25 μM) | Viable, Mean (%) (HCT-116 cells; 50 μM) | efficiency in inducing cell death on cancer cell lines [1] | viability in all cell strains [1] | also measured
CSCC[C@@H]1NC(=O)[C@@H](C(C)C)NC(=O)[C@H](C(C)C)NC(=O)[C@H](Cc2ccc(O)cc2)NC(=O)[C@H](Cc2ccccc2)NC(=O)[C@H](CCCNC(=N)N)N(C)C(=O)[C@H](CO)NC(=O)[C@H](CO)NC(=O)[C@H](CC(N)=O)NC(=O)[C@H](C(C)C)NC(=O)[C@H](C(C)C)NC(=O)[C@H](CCCCN)NC(=O)[C@H](C(C)C)NC(=O)[C@H](CO)NC(=O)[C@H](CC(C)C)NC(=O)CNC(=O)[C@@H]2CCCN2C(=O)[C@H]2CCCN2C(=O)[C@H](CCCCN)NC(=O)[C@H](Cc2c[nH]c3ccccc23)NC1=O (relative stereo) [PKTD10-RNMe, —S—R*—F—Y—V—V—M—W—K—p—P—G—L—S—V—K—V—V—N—S— R* = RNMe] | 91.72% | 91.10% | 76.73% |  |  | 
CCCC[C@@H]1NC(=O)[C@@H](C(C)C)NC(=O)[C@H](C(C)C)NC(=O)[C@H](Cc2ccc(O)cc2)NC(=O)[C@H](Cc2ccccc2)NC(=O)[C@H](CCCNC(=N)N)N(C)C(=O)[C@H](CO)NC(=O)[C@H](CO)NC(=O)[C@H](CC(N)=O)NC(=O)[C@H](C(C)C)NC(=O)[C@H](C(C)C)NC(=O)[C@H](CCCCN)NC(=O)[C@H](C(C)C)NC(=O)[C@H](CO)NC(=O)[C@H](CC(C)C)NC(=O)CNC(=O)[C@@H]2CCCN2C(=O)[C@H]2CCCN2C(=O)[C@H](CCCCN)NC(=O)[C@H](Cc2c[nH]c3ccccc23)NC1=O (relative stereo) [PKTD10-X-RNMe, —S—R*—F—Y—V—V—X—W—K—p—P—G—L—S—V—K—V—V—N—S— R* = RNMe and X = NLe] | 82.76% | 75.17% | 48.31% |  |  | 
CSCC[C@@H]1NC(=O)[C@H](C(C)C)NC(=O)[C@H](C(C)C)NC(=O)[C@H](Cc2ccc(O)cc2)NC(=O)[C@H](Cc2ccccc2)NC(=O)[C@H](CCCNC(=N)N)N(C)C(=O)[C@H](CO)NC(=O)[C@H](CO)NC(=O)[C@H](CC(N)=O)NC(=O)[C@H](C(C)C)NC(=O)[C@H](C(C)C)NC(=O)[C@H](CCCCN)NC(=O)[C@H](C(C)C)NC(=O)[C@H](CO)NC(=O)[C@H](CC(C)C)NC(=O)CNC(=O)[C@H](CO)NC(=O)[C@@H]2CCCN2C(=O)[C@H]2CCCN2C(=O)[C@H](CCC(N)=O)NC(=O)[C@H](CCCCN)NC(=O)[C@H](Cc2c[nH]c3ccccc23)NC1=O (relative stereo) [PKTD11RNMe, —S—R*—F—Y—V—V—M—W—K—Q—p—P—S—G—L—S—V—K—V—V—N—S— R* = RNMe] | 88.71% | 86.38% | 67.03% |  |  | 
CSCC[C@@H]1NC(=O)[C@H](C(C)C)NC(=O)[C@H](C(C)C)NC(=O)[C@H](Cc2ccc(O)cc2)NC(=O)[C@H](Cc2ccccc2)NC(=O)[C@H](CCCNC(=N)N)NC(=O)[C@H](CCCCN)NC(=O)[C@H](Cc2c[nH]c3ccccc23)NC1=O [PKC1, reference compound] | 92.95% | 92.72% | 92.15% | no potency in inducing cell death |  | Early Apoptosis, Mean (%) (HCT-116 cells; [2]): 4.54%; Late apoptosis, Mean (%) (HCT-116 cells; [2]): 2.25%; Early Apoptosis, Mean (%) (HCT-116 cells; peptide concentration 25 (μM)): 4.55%; Late apoptosis, Mean (%) (HCT-116 cells; peptide concentration 25 (μM)): 2.56%; Early Apoptosis, Mean (%) (HCT-116 cells; peptide concentration 50 (μM)): 4.98%; Late apoptosis, Mean (%) (HCT-116 cells; peptide concentration 50 (μM)): 2.75%; efficacy in triggering PCD (HCT-116 cells; from 12.5 to 50 μM): no efficacy
CC(C)C[C@@H]1NC(=O)[C@@H]2CCCN2C(=O)[C@H]2CCCN2C(=O)[C@H](Cc2c[nH]c3ccccc23)NC(=O)[C@H](CCCCN)NC(=O)[C@H](C(C)C)NC(=O)[C@H](C(C)C)NC(=O)[C@H](Cc2ccccc2)NC(=O)[C@H](Cc2ccccc2)NC(=O)[C@H](C(C)C)NC(=O)[C@H](C(C)C)NC(=O)[C@H](CCCCN)NC(=O)[C@H](C(C)C)NC(=O)[C@H](CO)NC1=O [PKD10-FF, —F—F—V—V—K—W—p—P—L—S—V—K—V—V—] (HELM PEPTIDE1{F.F.V.V.K.W.[dP].P.L.S.V.K.V.V}$PEPTIDE1,PEPTIDE1,1:R1-14:R2$$$V2.0) | 25.225% | 30.445% | 31.97% |  |  | 
CC[C@H](C)[C@@H]1NC(=O)CNC(=O)[C@@H]2CCCN2C(=O)[C@H]2CCCN2C(=O)[C@H](CCCCN)NC(=O)[C@H](Cc2c[nH]c3ccccc23)NC(=O)[C@H](CCSC)NC(=O)[C@H](C(C)C)NC(=O)[C@H](C(C)C)NC(=O)[C@H](Cc2ccc(O)cc2)NC(=O)[C@H](Cc2ccccc2)NC(=O)[C@H](CCCNC(=N)N)NC(=O)[C@H](CO)NC(=O)[C@H](CO)NC(=O)[C@H](CCCCN)NC(=O)[C@H](C(C)C)NC(=O)[C@H](C(C)C)NC(=O)[C@H](CCCCN)NC(=O)[C@H](C(C)C)NC(=O)[C@H](CO)NC1=O [PKTD1, —S—R—F—Y—V—V—M—W—K—p—P—G—I—S—V—K—V—V—K—S—] (HELM PEPTIDE1{G.I.S.V.K.V.V.K.S.S.R.F.Y.V.V.M.W.K.[dP].P}$PEPTIDE1,PEPTIDE1,1:R1-20:R2$$$V2.0) | 76.44% | 63.51% | 37.56% |  |  | 
CC[C@@H](C)[C@@H]1NC(=O)CNC(=O)[C@@H]2CCCN2C(=O)[C@H]2CCCN2C(=O)[C@H](CCCCN)NC(=O)[C@H](Cc2c[nH]c3ccccc23)NC(=O)[C@H](CCSC)NC(=O)[C@@H](C(C)C)NC(=O)[C@H](C(C)C)NC(=O)[C@H](Cc2ccc(O)cc2)NC(=O)[C@H](Cc2ccccc2)NC(=O)[C@H](CCCNC(=N)N)NC(=O)C(CC(N)=O)NC(=O)[C@H](C(C)C)NC(=O)[C@H](C(C)C)NC(=O)[C@H](CCCCN)NC(=O)[C@H](C(C)C)NC(=O)[C@H](CO)NC1=O (stereo partly shown) [PKTD7, —R—F—Y—V—V—M—W—K—p—P—G—I—S—V—K—V—V—N—] (HELM PEPTIDE1{G.[CC[C@@H](C)[C@H](N[*:1])C(=O)[*:2]].S.V.K.V.V.[NC(=O)CC(N[*:1])C(=O)[*:2]].R.F.Y.V.[dV].M.W.K.[dP].P}$PEPTIDE1,PEPTIDE1,1:R1-18:R2$$$V2.0) |  |  |  | efficient in inducing cell death | dose-dependent viability decrease | 
CSCC[C@@H]1NC(=O)[C@@H](C(C)C)NC(=O)[C@H](C(C)C)NC(=O)[C@H](Cc2ccc(O)cc2)NC(=O)[C@H](Cc2ccccc2)NC(=O)[C@H](CCCNC(=N)N)NC(=O)[C@H](CO)NC(=O)CNC(=O)[C@H](CC(N)=O)NC(=O)[C@H](C(C)C)NC(=O)[C@H](C(C)C)NC(=O)[C@H](CCCCN)NC(=O)[C@H](C(C)C)NC(=O)[C@H](CO)NC(=O)[C@H](CC(C)C)NC(=O)CNC(=O)[C@@H]2CCCN2C(=O)[C@H]2CCCN2C(=O)[C@H](CCCCN)NC(=O)[C@H](Cc2c[nH]c3ccccc23)NC1=O [PKTD18, —S—R—F—Y—V—V—M—W—K—p—P—G—L—S—V—K—V—V—N—G—] (HELM PEPTIDE1{S.R.F.Y.V.[dV].M.W.K.[dP].P.G.L.S.V.K.V.V.N.G}$PEPTIDE1,PEPTIDE1,1:R1-20:R2$$$V2.0) | 82.45% | 75.12% | 67.48% |  |  | 
—S—R—F—Y—V—V—M—W—K—Q—p—P—S—G—L—S—V—K—V—V—N—S— [PKTD11] |  |  |  | efficient in inducing cell death | dose-dependent viability decrease | 
—S—R—F—Y—V—V—M—W—K—p—P—S—R—F—Y—V—V—M—W—K— (SRFYVVMWKPPSRFYVVMWK; HELM PEPTIDE1{S.R.F.Y.V.V.M.W.K.[dP].P.S.R.F.Y.V.V.M.W.K}$PEPTIDE1,PEPTIDE1,1:R1-20:R2$$$V2.0; SMILES CSCC[C@@H]1NC(=O)[C@H](C(C)C)NC(=O)[C@H](C(C)C)NC(=O)[C@H](Cc2ccc(O)cc2)NC(=O)[C@H](Cc2ccccc2)NC(=O)[C@H](CCCNC(=N)N)NC(=O)[C@H](CO)NC(=O)[C@@H]2CCCN2C(=O)[C@H]2CCCN2C(=O)[C@H](CCCCN)NC(=O)[C@H](Cc2c[nH]c3ccccc23)NC(=O)[C@H](CCSC)NC(=O)[C@H](C(C)C)NC(=O)[C@H](C(C)C)NC(=O)[C@H](Cc2ccc(O)cc2)NC(=O)[C@H](Cc2ccccc2)NC(=O)[C@H](CCCNC(=N)N)NC(=O)[C@H](CO)NC(=O)[C@H](CCCCN)NC(=O)[C@H](Cc2c[nH]c3ccccc23)NC1=O; listed as Homo sapiens) [PKTD16] |  |  |  |  | dose-dependent viability decrease | 

Reference: patent publication US11306124B2, “Agonist agents of CD47 inducing programmed cell death and their use in the treatments of diseases associated with defects in programmed cell death” (SORBONNE UNIVERSITE, priority 2016, dated 2022)
